By IC50 is commonly meant the concentration that gives 50% inhibition. The low end stands for greater potency, the high end for weaker potency. The inhibition is the drop in the measured response relative to a control, in per cent.

From ChEMBL document CHEMBL1156697, “Investigations concerning the COX/5-LOX inhibiting and hydroxyl radical scavenging potencies of novel 4,5-diaryl isoselenazoles” (Eur J Med Chem, 2008) come the findings set out here.

The target of assay [1] is T1, Prostaglandin G/H synthase 1 (Bos taurus, UniProt O62664).
T1 sequence (O62664 whole entry): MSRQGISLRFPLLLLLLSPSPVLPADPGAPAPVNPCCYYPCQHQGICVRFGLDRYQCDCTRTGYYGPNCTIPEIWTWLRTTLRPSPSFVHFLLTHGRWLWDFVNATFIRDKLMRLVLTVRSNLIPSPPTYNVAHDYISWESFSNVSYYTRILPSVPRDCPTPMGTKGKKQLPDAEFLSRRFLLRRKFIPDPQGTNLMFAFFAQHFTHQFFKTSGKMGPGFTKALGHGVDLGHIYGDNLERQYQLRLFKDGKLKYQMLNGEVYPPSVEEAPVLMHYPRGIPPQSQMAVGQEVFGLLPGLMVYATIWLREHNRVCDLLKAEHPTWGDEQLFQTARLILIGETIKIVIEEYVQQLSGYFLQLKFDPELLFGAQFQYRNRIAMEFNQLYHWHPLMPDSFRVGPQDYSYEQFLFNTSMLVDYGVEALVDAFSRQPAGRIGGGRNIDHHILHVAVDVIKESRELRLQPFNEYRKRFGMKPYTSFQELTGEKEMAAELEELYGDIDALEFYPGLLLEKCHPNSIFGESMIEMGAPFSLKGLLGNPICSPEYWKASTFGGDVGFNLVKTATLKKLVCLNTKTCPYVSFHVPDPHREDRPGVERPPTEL
The experiment in a line: Inhibition of bovine COX1.

The target of assay [2] is T2, Prostaglandin G/H synthase 2 (Homo sapiens) (UniProt P35354).
T2 sequence (whole entry): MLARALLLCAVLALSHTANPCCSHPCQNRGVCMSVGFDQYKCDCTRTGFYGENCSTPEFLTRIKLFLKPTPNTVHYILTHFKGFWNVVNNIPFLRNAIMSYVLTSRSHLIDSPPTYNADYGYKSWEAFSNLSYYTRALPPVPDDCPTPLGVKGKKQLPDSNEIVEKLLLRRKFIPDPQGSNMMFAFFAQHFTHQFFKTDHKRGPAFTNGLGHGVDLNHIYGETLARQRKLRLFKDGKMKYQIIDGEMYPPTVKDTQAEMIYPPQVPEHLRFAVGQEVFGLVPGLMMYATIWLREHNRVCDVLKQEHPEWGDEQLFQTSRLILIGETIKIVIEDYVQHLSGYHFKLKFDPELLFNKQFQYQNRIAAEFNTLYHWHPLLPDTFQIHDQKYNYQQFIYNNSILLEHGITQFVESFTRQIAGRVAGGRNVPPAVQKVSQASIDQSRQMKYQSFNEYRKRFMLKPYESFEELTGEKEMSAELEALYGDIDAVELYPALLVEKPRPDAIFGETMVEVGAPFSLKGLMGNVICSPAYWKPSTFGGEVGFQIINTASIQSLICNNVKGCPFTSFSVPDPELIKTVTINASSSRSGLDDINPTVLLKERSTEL
As to the kind of experiment: Inhibition of human COX2 at 10 uM.

For assay [3], the target named is T3, Prostaglandin G/H synthase 2 (Homo sapiens, UniProt P35354).
T3 sequence (P35354 whole entry): T2 sequence (whole entry)

Assay [4] can be described thus: Antioxidant activity assessed as hydroxyl radical scavenging activity at 100 uM. It counts as functional.
Assay [5] is described as follows: Inhibition of bovine 5LOX.
Assay [6] addresses T4, Prostaglandin G/H synthase 1 (Bos taurus) (UniProt O62664).
T4 sequence (whole entry): T1 sequence (O62664 whole entry)
The experiment in a line: Inhibition of bovine COX1 at 10 uM.

The molecule `COc1ccc(-c2[se]ncc2-c2ccc(C)cc2)cc1` yielded an IC50 in assay [1] of 20 nM.
For `COc1ccc(-c2cn[se]c2-c2ccc(Cl)cc2)cc1`, in assay [1], the IC50 amounted to 10 nM. In assay [2], this molecule showed an inhibition of 16%.
With `COc1ccc(-c2cn[se]c2-c2ccc(OC)cc2)cc1`, the figures for the IC50 in assay [1] and in assay [3] were 6 nM and 8000 nM, respectively. Also, the inhibition in assay [4] came out at 14%.
Consider `CC1(C)Cc2c(-c3ccccc3)c(-c3ccc(Cl)cc3)c(CC(=O)O)n2C1` [LICOFELONE], for which it took 180 nM to reach half-maximal inhibition in assay [5] (IC50).
`Cc1ccc(-c2cn[se]c2-c2ccc(Cl)cc2)cc1` yielded an IC50 in assay [1] of 200 nM.
With `COc1ccc(-c2[se]ncc2-c2ccc(Cl)cc2)cc1`, half-maximal inhibition in assay [1] (IC50) was put at 20 nM. The molecule further had an inhibition in assay [2] of 17%.
In assay [1], `Clc1ccc(-c2cn[se]c2-c2ccc(Cl)cc2)cc1` returned an IC50 of 200 nM.
Take `Cc1ccc(-c2cc(C(F)(F)F)nn2-c2ccc(S(N)(=O)=O)cc2)cc1`: in assay [4], the inhibition came to 27%.
As for `CS(=O)(=O)c1ccc(-c2[se]ncc2-c2ccc(F)cc2)cc1`, the inhibition in assay [6] was determined as 38%; in assay [4], 34%. In addition, the IC50 in assay [3] turned out to be 600 nM; in assay [5] it was 8000 nM.
For the molecule `CC(Cc1ccc(O)c(O)c1)C(C)Cc1ccc(O)c(O)c1` (stereo unspecified) [NORDIHYDROGUAIARETIC ACID], the inhibition in assay [6] worked out at 31%; in assay [2], 10%. In assay [5], this molecule showed an IC50 of 1000 nM.
In assay [1], `O=c1c2ccccc2[se]n1-c1ccccc1` [EBSELEN] had an IC50 of 2100 nM.
On the same count and under the same terms, in the case of `Cc1ccc(-c2[se]ncc2-c2ccc(Cl)cc2)cc1` it was 50 nM.
